Tests used:
late watergrass = test: Test Example 1: herbicidal activity, application before weed generation under submerged conditions (Table 16, symbol A); assay type: in vivo, late watergrass (Echinochloa oryzicola); details: amount of applied herbicide 320 g/ha
Summary of the method: (§1)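 Emulsion formulation, water-diluted to set dose, was put onto the flooded surface (4 cm depth, alluvial soil) the same day weeds were sown and 2.5-leaf rice transplanted. After 3 weeks at 25-30 °C under glass, each species was rated 0 (≤5% kill) to 5 (≥90% kill).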

Japanese bulrush = test: Test Example 1: herbicidal activity, application before weed generation under submerged conditions (Table 16, symbol B); assay type: in vivo, Japanese bulrush (Schoenoplectus juncoides); details: amount of applied herbicide 320 g/ha
Summary of the method: as §1

oval-leafed pondweed = test: Test Example 1: herbicidal activity, application before weed generation under submerged conditions (Table 16, symbol C); assay type: in vivo, oval-leafed pondweed (Monochoria vaginalis); details: amount of applied herbicide 320 g/ha
Summary of the method: as §1

barnyard grass [1] = test: Test Example 3: herbicidal effect by foliage application, Wagner pot (Table 18, symbol H); assay type: in vivo, barnyard grass (Echinochloa crus-galli); details: 320 g/ha
Summary of the method: (§2)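 Plants were sown in alluvial soil held under 0.1–0.5 cm standing water and grown 14 days in a greenhouse at 25–30 °C. An emulsifiable formulation, water-diluted to the set dose, was then sprayed onto the foliage, and effects were scored three weeks later using previously defined criteria.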

Chinese sprangletop = test: Test Example 3: herbicidal effect by foliage application, Wagner pot (Table 18, symbol D); assay type: in vivo, chinese sprangletop (Leptochloa chinensis); details: 320 g/ha
Summary of the method: as §2

rice flat sedge = test: Test Example 3: herbicidal effect by foliage application, Wagner pot (Table 18, symbol E); assay type: in vivo, rice flat sedge (Cyperus iria); details: 320 g/ha
Summary of the method: as §2

southern crabgrass [2] = test: Test Example 4: herbicidal effect by soil treatment (Table 19, symbol F); assay type: in vivo, southern crabgrass (Digitaria ciliaris); details: amount of applied herbicide 320 g/ha
Summary of the method: (§3)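 Three weeks of greenhouse growth at 25° C. to 30° C. followed a uniform surface spray of water-diluted emulsion at a predetermined herbicide amount. Seeds had been sown beforehand under about 1.5 cm of sterilized diluvial soil. Grading followed criteria set out in an earlier test.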

green foxtail [3] = test: Test Example 4: herbicidal effect by soil treatment (Table 19, symbol G); assay type: in vivo, green foxtail (Setaria viridis); details: amount of applied herbicide 320 g/ha
Summary of the method: as §3

barnyard grass [4] = test: Test Example 4: herbicidal effect by soil treatment (Table 19, symbol H); assay type: in vivo, barnyard grass (Echinochloa crus-galli); details: amount of applied herbicide 320 g/ha
Summary of the method: as §3

wild oat [5] = test: Test Example 4: herbicidal effect by soil treatment (Table 19, symbol I); assay type: in vivo, wild oat (Avena fatua); details: amount of applied herbicide 320 g/ha
Summary of the method: as §3

blackgrass [6] = test: Test Example 4: herbicidal effect by soil treatment (Table 19, symbol J); assay type: in vivo, blackgrass (Alopecurus myosuroides); details: amount of applied herbicide 320 g/ha
Summary of the method: as §3

Italian ryegrass [7] = test: Test Example 4: herbicidal effect by soil treatment (Table 19, symbol K); assay type: in vivo, Italian ryegrass (Lolium multiflorum); details: amount of applied herbicide 320 g/ha
Summary of the method: as §3

windgrass [8] = test: Test Example 4: herbicidal effect by soil treatment (Table 19, symbol L); assay type: in vivo, windgrass (Apera spica-venti); details: amount of applied herbicide 320 g/ha
Summary of the method: as §3

velvetleaf [9] = test: Test Example 4: herbicidal effect by soil treatment (Table 19, symbol M); assay type: in vivo, velvetleaf (Abutilon theophrasti); details: amount of applied herbicide 320 g/ha
Summary of the method: as §3

redroot pigweed [10] = test: Test Example 4: herbicidal effect by soil treatment (Table 19, symbol N); assay type: in vivo, redroot pigweed (Amaranthus retroflexus); details: amount of applied herbicide 320 g/ha
Summary of the method: as §3

lambsquarters [11] = test: Test Example 4: herbicidal effect by soil treatment (Table 19, symbol O); assay type: in vivo, lambsquarters (Chenopodium album); details: amount of applied herbicide 320 g/ha
Summary of the method: as §3

chickweed [12] = test: Test Example 4: herbicidal effect by soil treatment (Table 19, symbol P); assay type: in vivo, common chickweed (Stellaria media); details: amount of applied herbicide 320 g/ha
Summary of the method: as §3

false cleavers = test: Test Example 4: herbicidal effect by soil treatment (Table 19, symbol Q); assay type: in vivo, false cleavers (Galium spurium); details: amount of applied herbicide 320 g/ha
Summary of the method: as §3

persian speedwell [13] = test: Test Example 4: herbicidal effect by soil treatment (Table 19, symbol R); assay type: in vivo, Persian speedwell (Veronica persica); details: amount of applied herbicide 320 g/ha
Summary of the method: as §3

southern crabgrass [14] = test: Test Example 5: herbicidal effect by foliage application, plastic box (Table 20, symbol F); assay type: in vivo, southern crabgrass (Digitaria ciliaris); details: foliage application, three weeks after application
Summary of the method: (§4)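 Plants sown in sterilized diluvial soil and grown 14 days in a greenhouse at 25° C to 30° C, then sprayed on the foliage with the compound's emulsion diluted in water to a predetermined herbicide amount. Injury to weeds and crops scored three weeks after application on a visual rating scale.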

green foxtail [15] = test: Test Example 5: herbicidal effect by foliage application, plastic box (Table 20, symbol G); assay type: in vivo, green foxtail (Setaria viridis); details: foliage application, three weeks after application
Summary of the method: as §4

barnyard grass [16] = test: Test Example 5: herbicidal effect by foliage application, plastic box (Table 20, symbol H); assay type: in vivo, barnyard grass (Echinochloa crus-galli); details: foliage application, three weeks after application
Summary of the method: as §4

wild oat [17] = test: Test Example 5: herbicidal effect by foliage application, plastic box (Table 20, symbol I); assay type: in vivo, wild oat (Avena fatua); details: foliage application, three weeks after application
Summary of the method: as §4

blackgrass [18] = test: Test Example 5: herbicidal effect by foliage application, plastic box (Table 20, symbol J); assay type: in vivo, blackgrass (Alopecurus myosuroides); details: foliage application, three weeks after application
Summary of the method: as §4

Italian ryegrass [19] = test: Test Example 5: herbicidal effect by foliage application, plastic box (Table 20, symbol K); assay type: in vivo, Italian ryegrass (Lolium multiflorum); details: foliage application, three weeks after application
Summary of the method: as §4

windgrass [20] = test: Test Example 5: herbicidal effect by foliage application, plastic box (Table 20, symbol L); assay type: in vivo, windgrass (Apera spica-venti); details: foliage application, three weeks after application
Summary of the method: as §4

velvetleaf [21] = test: Test Example 5: herbicidal effect by foliage application, plastic box (Table 20, symbol M); assay type: in vivo, velvetleaf (Abutilon theophrasti); details: foliage application, three weeks after application
Summary of the method: as §4

lambsquarters [22] = test: Test Example 5: herbicidal effect by foliage application, plastic box (Table 20, symbol O); assay type: in vivo, lambsquarters (Chenopodium album); details: foliage application, three weeks after application
Summary of the method: as §4

persian speedwell [23] = test: Test Example 5: herbicidal effect by foliage application, plastic box (Table 20, symbol R); assay type: in vivo, Persian speedwell (Veronica persica); details: foliage application, three weeks after application
Summary of the method: as §4

redroot pigweed [24] = test: Test Example 5: herbicidal effect by foliage application, plastic box (Table 20, symbol N); assay type: in vivo, redroot pigweed (Amaranthus retroflexus); details: foliage application, AAH 320 g/ha, three weeks after application
Summary of the method: as §4

chickweed [25] = test: Test Example 5: herbicidal effect by foliage application, plastic box (Table 20, symbol P); assay type: in vivo, common chickweed (Stellaria media); details: foliage application, AAH 320 g/ha, three weeks after application
Summary of the method: as §4

Cc1nn(C)c(=O)c(-c2c(-c3ccc(OC(F)F)cc3)sc3cc(F)c(F)cc23)c1O [5-084]
Herbicidal effect, A: late watergrass (late watergrass): 3 (Herbicidal rate of 40% or more and less than 70%)
Herbicidal effect, B: Japanese bulrush (Japanese bulrush): 2 (Herbicidal rate of 20% or more and less than 40%)
Herbicidal effect, C: oval-leafed pondweed (oval-leafed pondweed): 0 (Herbicidal rate of 5% or less (almost no effect))
herbicidal effect on barnyard grass (H) (barnyard grass [1]): 4 (Herbicidal rate of 70% or more and less than 90%)
herbicidal effect on Chinese sprangletop (D) (Chinese sprangletop): 0 (Herbicidal rate of 5% or less (almost no effect))
herbicidal effect on rice flat sedge (E) (rice flat sedge): 3 (Herbicidal rate of 40% or more and less than 70%)
F: southern crabgrass, herbicidal effect grade (southern crabgrass [2]): 0 (Herbicidal rate of 5% or less (almost no effect))
G: green foxtail, herbicidal effect grade (green foxtail [3]): 2 (Herbicidal rate of 20% or more and less than 40%)
H: barnyard grass, herbicidal effect grade (barnyard grass [4]): 1 (Herbicidal rate of 5% or more and less than 20%)
I: wild oat, herbicidal effect grade (wild oat [5]): 0 (Herbicidal rate of 5% or less (almost no effect))
J: blackgrass, herbicidal effect grade (blackgrass [6]): 0 (Herbicidal rate of 5% or less (almost no effect))
K: Italian ryegrass, herbicidal effect grade (Italian ryegrass [7]): 0 (Herbicidal rate of 5% or less (almost no effect))
L: windgrass, herbicidal effect grade (windgrass [8]): 5 (Herbicidal rate of 90% or more (almost completely withered))
M: velvetleaf, herbicidal effect grade (velvetleaf [9]): 4 (Herbicidal rate of 70% or more and less than 90%)
N: redroot pigweed, herbicidal effect grade (redroot pigweed [10]): 5 (Herbicidal rate of 90% or more (almost completely withered))
O: lambsquarters, herbicidal effect grade (lambsquarters [11]): 5 (Herbicidal rate of 90% or more (almost completely withered))
P: chickweed, herbicidal effect grade (chickweed [12]): 0 (Herbicidal rate of 5% or less (almost no effect))
Q: false cleavers, herbicidal effect grade (false cleavers): 2 (Herbicidal rate of 20% or more and less than 40%)
R: persian speedwell, herbicidal effect grade (persian speedwell [13]): 3 (Herbicidal rate of 40% or more and less than 70%)
herbicidal effect on southern crabgrass (F) (southern crabgrass [14]; 320 g/ha): 4 (Herbicidal rate of 70% or more and less than 90%)
herbicidal effect on green foxtail (G) (green foxtail [15]; 320 g/ha): 4 (Herbicidal rate of 70% or more and less than 90%)
herbicidal effect on barnyard grass (H) (barnyard grass [16]; 320 g/ha): 2 (Herbicidal rate of 20% or more and less than 40%)
herbicidal effect on wild oat (I) (wild oat [17]; 320 g/ha): 3 (Herbicidal rate of 40% or more and less than 70%)
herbicidal effect on blackgrass (J) (blackgrass [18]; 320 g/ha): 4 (Herbicidal rate of 70% or more and less than 90%)
herbicidal effect on Italian ryegrass (K) (Italian ryegrass [19]; 320 g/ha): 5 (Herbicidal rate of 90% or more (almost completely withered))
herbicidal effect on windgrass (L) (windgrass [20]; 320 g/ha): 5 (Herbicidal rate of 90% or more (almost completely withered))
herbicidal effect on velvetleaf (M) (velvetleaf [21]; 320 g/ha): 5 (Herbicidal rate of 90% or more (almost completely withered))
herbicidal effect on lambsquarters (O) (lambsquarters [22]; 320 g/ha): 5 (Herbicidal rate of 90% or more (almost completely withered))
herbicidal effect on persian speedwell (R) (persian speedwell [23]; 320 g/ha): 5 (Herbicidal rate of 90% or more (almost completely withered))

CCCC(=O)Oc1c(C)nn(C)c(=O)c1-c1c(-n2cc(Cl)cn2)sc2ccccc12 [Compound No. 1-098, 1,3-dimethyl-6-oxo-5-(2-(4-chloro-1H-pyrazol-1-yl)benzo[b]thiophen-3-yl)-1,6-dihydropyridazin-4-yl=(n-butyrate)]
herbicidal effect on H (barnyard grass), rating 0-5 (barnyard grass [1]): 0 (Herbicidal rate of 5% or less (almost no effect))
herbicidal effect on D (Chinese sprangletop), rating 0-5 (Chinese sprangletop): 0 (Herbicidal rate of 5% or less (almost no effect))
herbicidal effect on E (rice flat sedge), rating 0-5 (rice flat sedge): 4 (Herbicidal rate of 70% or more and less than 90%)
herbicidal effect rating, F: southern crabgrass (southern crabgrass [2]): 0 (Herbicidal rate of 5% or less (almost no effect))
herbicidal effect rating, G: green foxtail (green foxtail [3]): 0 (Herbicidal rate of 5% or less (almost no effect))
herbicidal effect rating, H: barnyard grass (barnyard grass [4]): 0 (Herbicidal rate of 5% or less (almost no effect))
herbicidal effect rating, I: wild oat (wild oat [5]): 0 (Herbicidal rate of 5% or less (almost no effect))
herbicidal effect rating, J: blackgrass (blackgrass [6]): 0 (Herbicidal rate of 5% or less (almost no effect))
herbicidal effect rating, K: Italian ryegrass (Italian ryegrass [7]): 0 (Herbicidal rate of 5% or less (almost no effect))
herbicidal effect rating, L: windgrass (windgrass [8]): 0 (Herbicidal rate of 5% or less (almost no effect))
herbicidal effect rating, M: velvetleaf (velvetleaf [9]): 3 (Herbicidal rate of 40% or more and less than 70%)
herbicidal effect rating, N: redroot pigweed (redroot pigweed [10]): 0 (Herbicidal rate of 5% or less (almost no effect))
herbicidal effect rating, O: lambsquarters (lambsquarters [11]): 4 (Herbicidal rate of 70% or more and less than 90%)
herbicidal effect rating, P: chickweed (chickweed [12]): 3 (Herbicidal rate of 40% or more and less than 70%)
herbicidal effect rating, Q: false cleavers (false cleavers): 0 (Herbicidal rate of 5% or less (almost no effect))
herbicidal effect rating, R: persian speedwell (persian speedwell [13]): 0 (Herbicidal rate of 5% or less (almost no effect))
F: southern crabgrass, herbicidal effect (southern crabgrass [14]; AAH 320 g/ha): 0 (Herbicidal rate of 5% or less (almost no effect))
G: green foxtail, herbicidal effect (green foxtail [15]; AAH 320 g/ha): 2 (Herbicidal rate of 20% or more and less than 40%)
H: barnyard grass, herbicidal effect (barnyard grass [16]; AAH 320 g/ha): 3 (Herbicidal rate of 40% or more and less than 70%)
I: wild oat, herbicidal effect (wild oat [17]; AAH 320 g/ha): 0 (Herbicidal rate of 5% or less (almost no effect))
J: blackgrass, herbicidal effect (blackgrass [18]; AAH 320 g/ha): 0 (Herbicidal rate of 5% or less (almost no effect))
K: Italian ryegrass, herbicidal effect (Italian ryegrass [19]; AAH 320 g/ha): 2 (Herbicidal rate of 20% or more and less than 40%)
L: windgrass, herbicidal effect (windgrass [20]; AAH 320 g/ha): 0 (Herbicidal rate of 5% or less (almost no effect))
M: velvetleaf, herbicidal effect (velvetleaf [21]; AAH 320 g/ha): 0 (Herbicidal rate of 5% or less (almost no effect))
N: redroot pigweed, herbicidal effect (redroot pigweed [24]): 5 (Herbicidal rate of 90% or more (almost completely withered))
O: lambsquarters, herbicidal effect (lambsquarters [22]; AAH 320 g/ha): 5 (Herbicidal rate of 90% or more (almost completely withered))
P: chickweed, herbicidal effect (chickweed [25]): 5 (Herbicidal rate of 90% or more (almost completely withered))
R: persian speedwell, herbicidal effect (persian speedwell [23]; AAH 320 g/ha): 3 (Herbicidal rate of 40% or more and less than 70%)

Source: patent US20230085307A1, “PYRIDAZINONE COMPOUND AND HERBICIDE” (NISSAN CHEMICAL CORPORATION, priority 2019, published 2023)
